In patent publication US20210263015A1, “MEASUREMENT METHOD” (priority 2018, published 2021):

Legend:
Type in all cases: cell-based
[1] = system: Nerve cells derived from human iPS cells (XCL-1 neuron); assay: Neural activity propagation in neural network of nerve cell device on MEA (picrotoxin), XCL-1 neurons; conditions: picrotoxin 0.1-10 μm; XCL-1 neurons seeded at 3×10^5 or 9×10^5 cells/cm^2; relative to vehicle (DMSO)
Description: (§1) FIG. 4 is a diagram showing the results obtained by measuring the effect of picrotoxin by changing its concentration on the propagation speed of action potential in a neural network included in a nerve cell device having a different cell seeding density. As nerve cells, XCL-1 neurons (Xcell Science, US) were seeded at density of 3×10^5 cells/cm^2 (A) and 9×10^5 cells/cm^2 (B) or cerebral cortex neurons derived from human iPS cells (Axol Bioscience, UK) were seeded at density of 8x10^5 cells/cm^2 (C) and 24×10^5 cells/cm^2 (D) and cultured for 6 weeks. The concentrations of picrotoxin were 0.1, 0.3, 1, 3 and 10 μM. The results are relative values in which the propagation speed of action potential in case of the addition of vehicle (DMSO, a solvent in the drug) is taken as 100, and indicated by the average ±standard error (A, n=3; B, n=6; C, n=2; D, n=4).
(§2) An oriented PS fiber sheet obtained by mounting a stainless steel circular frame produced in Example 1 was hydrophilized by plasma treatment using a desktop plasma treatment apparatus (STREX Inc.), and then coated with poly-D-lysine and laminin. […] The nerve action potential was determined.

[2] = system: Cerebral cortex neurons derived from human iPS cells; assay: Neural activity propagation in neural network of nerve cell device on MEA (picrotoxin), cerebral cortex neurons; conditions: picrotoxin 0.1-10 μm; cerebral cortex neurons seeded at 8×10^5 or 24×10^5 cells/cm^2; relative to vehicle (DMSO)
Description: as §1, §2

[3] = system: Cerebral cortex neurons derived from human iPS cells; assay: Neural activity propagation in neural network of nerve cell device on MEA (4-AP)
Excerpt: FIG. 3 is a diagram showing the results of measuring by MEA (16 channels) the effect of 4-aminopyridines (4-AP) on the propagation speed of action potential in a neural network included in a nerve cell device. (A) is a raster plot diagram of the electrical signal measured by MEA after the addition of DMSO (upper figure) or 4-AP (lower figure). (B) is a diagram showing the results of measuring the time taken by the action potential in a neural network from the channel number 1 of the MEA to the channel number 16 (the channel at the diagonal of the MEA) after the addition of 4-AP (0.3, 1, and 3 μM) or DMSO and before the addition of the drug. The results are relative values in which the action potential arrival time in case of before the addition of the drug is taken as 100, and indicated by the average ±standard error (n=4). The decrease in the relative value of arrival time of action potential indicates an increase in the propagation speed of the action potential.
as §2, with “and the propagation direction of the neural activity were measured. […]” for “was determined.”

[4] = system: spinal motion neuron derived from human iPS cells

## picrotoxin
[1]
  propagation speed of action potential, concentration dependence: an increase in propagation speed of a concentration-dependent action potential was observed
[2]
  propagation speed of action potential, concentration dependence: an increase in propagation speed of a concentration-dependent action potential was observed

## Nc1ccncc1 [4-AP, 4-aminopyridin]
[3]; 4-AP 3 μM, channel 1 to channel 16 of MEA, DMSO 0.14 m/sec
  propagation speed of neural activity: 0.39 m/sec
[3]; 4-AP 0.3, 1 and 3 μM, n=4
  propagation speed of neural activity, concentration dependence (relative action potential arrival time): increase dependently with the concentration of 4-AP

## NC1=N[C@H](O)[C@H]2[C@H]3O[C@]4(O)O[C@@H]([C@@H](O)[C@@]2(N1)[C@@H]4O)[C@]3(O)CO [TTX, tetrodotoxin]
[4]
  peak time of action potential: delayed
